Measured values taken from ChEMBL document CHEMBL4732190, “Identification of Potent and Long-Acting Single-Chain Peptide Mimetics of Human Relaxin-2 for Cardiovascular Diseases” (J Med Chem, 2021).
Values after ≈ are worked out from the molar mass of the structure shown. *1 amine or outer side, *2 acyl side, *3 side chain or, on linkers, in order; H or OH if unused. Where a SMILES comes first, the peptide text is derived from it. [ ]: non-standard residue; d: D form. The star is where a group is joined. X9 = NC(=O)CC[C@H](N*)C(=O)CCCCCCCCCCCCCCCCCC(=O)O; β2hAla(2S) = C[C@@H](CN[*:1])C(=O)[*:2]; X4 = CCCC[C@H](O[*:1])C(=O)[*:2]; hLys = NCCCCC[C@H](N)C(=O)O; Nle = CCCC[C@H](N)C(=O)O; Orn = NCCC[C@H](N)C(=O)O

Assays:
[1] = Aqueous solubility of compound in acetate buffer at pH 4.5 measured after 24 hrs by UPLC analysis; assay type: physicochemical
[2] = Stability in human plasma assessed as parent compound remaining level at 5 uM remaining after 4 hrs; assay type: ADME, cell-free; conditions: read-out: Stabilty
[3] = Aqueous solubility of compound in phosphate buffer at pH 7.4 measured after 24 hrs by UPLC analysis; assay type: physicochemical
[4] = biological target: T1, Relaxin receptor 1 (Homo sapiens) (UniProt Q9HBX9); test: Agonist activity at RXFP1 endogenously expressed in human OVCAR-5 cells assessed as increase in IBMX-induced cAMP accumulation pretreated with IBMX for 40 mins followed by compound addition and measured after 30 mins by HTRF assay relative to relaxin; assay type: functional, cell-based; conditions: filed as agonist
T1 sequence (whole entry): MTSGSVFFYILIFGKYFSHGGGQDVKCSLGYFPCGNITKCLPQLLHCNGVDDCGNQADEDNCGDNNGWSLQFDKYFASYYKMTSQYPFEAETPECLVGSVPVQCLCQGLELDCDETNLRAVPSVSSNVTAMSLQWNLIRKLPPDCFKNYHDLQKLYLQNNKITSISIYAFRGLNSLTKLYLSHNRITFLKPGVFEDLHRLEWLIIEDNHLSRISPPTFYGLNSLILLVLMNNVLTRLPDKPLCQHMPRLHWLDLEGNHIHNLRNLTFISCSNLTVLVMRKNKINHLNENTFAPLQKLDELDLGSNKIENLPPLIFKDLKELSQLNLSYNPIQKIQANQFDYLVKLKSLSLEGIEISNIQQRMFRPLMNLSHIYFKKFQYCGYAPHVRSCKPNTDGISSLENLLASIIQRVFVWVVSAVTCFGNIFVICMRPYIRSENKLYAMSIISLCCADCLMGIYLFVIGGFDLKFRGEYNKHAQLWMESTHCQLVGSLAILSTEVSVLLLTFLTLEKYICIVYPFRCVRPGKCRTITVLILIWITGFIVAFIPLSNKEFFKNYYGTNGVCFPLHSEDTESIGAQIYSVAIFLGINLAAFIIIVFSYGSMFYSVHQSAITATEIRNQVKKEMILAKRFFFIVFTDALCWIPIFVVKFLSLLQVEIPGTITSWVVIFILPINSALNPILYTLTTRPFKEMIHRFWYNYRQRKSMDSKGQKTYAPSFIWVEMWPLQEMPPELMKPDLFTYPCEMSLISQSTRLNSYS

[5] = biological target: T2, Relaxin receptor 1 (Homo sapiens, UniProt Q9HBX9); test: Agonist activity at RXFP1 endogenously expressed in human OVCAR-5 cells assessed as increase in IBMX-induced cAMP accumulation pretreated with IBMX for 40 mins followed by compound addition and measured after 30 mins by HTRF assay; assay type: functional, cell-based
T2 sequence (Q9HBX9 whole entry): T1 sequence (whole entry)

[6] = Stability in rat plasma assessed as parent compound remaining level at 5 uM remaining after 4 hrs; assay type: ADME, cell-free; conditions: read-out: Stabilty
[7] = biological target: T2, Relaxin receptor 1; test: Agonist activity at RXFP1 endogenously expressed in human OVCAR-5 cells assessed as increase in IBMX-induced cAMP accumulation pretreated with IBMX for 40 mins followed by compound addition and measured after 30 mins in presence of 2 % HSA by HTRF assay; assay type: functional, cell-based

Row | Compound | solubility at 24 h [1] | remaining at 4 h, 5 µM [2] | solubility at 24 h [3] | Emax [4] | EC50 [5] | remaining at 4 h, 5 µM [6] | EC50 [7]
1 | CC[C@H](C)[C@H](NC[C@@H](C)CNC(=O)[C@@H](NC(=O)[C@H](CCC(N)=O)NC(=O)[C@H](C)NC(=O)[C@H](CCCNC(=N)N)NC(=O)[C@@H](NC(=O)[C@H](CCCCN)NC(=O)[C@H](CCC(=O)O)NC(=O)[C@H](CCCNC(=N)N)NC(=O)CNC(=O)[C@H](CCC(=O)O)NC(=O)[C@H](CC(C)C)NC(=O)[C@H](CCCCN)NC(=O)[C@@H](NC(=O)[C@@H](NC(C)=O)C(C)C)[C@@H](C)CC)C(C)C)[C@@H](C)CC)C(=O)N[C@@H](CCC(=O)O)C(=O)NCC(=O)N[C@@H](CCSC)C(=O)N[C@@H](CO)C(=O)N[C@@H](CCCCN)C(=O)N[C@@H](Cc1c[nH]c2ccccc12)C(=O)N[C@@H](CO)C(=O)N[C@@H](CCCCN)C(=O)N[C@@H](CCCNC(=N)N)C(=O)N[C@@H](CCCCN)C(=O)N[C@@H](CCCCN)C(N)=O | 4800 µg/mL (≈ 1490 µM) | 79% | 3800 µg/mL (≈ 1180 µM) | 95% | 0.054 µM | 29% | 
2 | CC[C@H](C)[C@H](NC(=O)[C@H](CCC(N)=O)NC(=O)[C@H](C)NC(=O)[C@H](CCCNC(=N)N)NC(=O)[C@@H](NC(=O)[C@H](CCCCN)NC(=O)[C@H](CCC(=O)O)NC(=O)[C@H](CCCNC(=N)N)NC(=O)CNC(=O)[C@H](CCC(=O)O)NC(=O)[C@H](CC(C)C)NC(=O)[C@H](CCCCN)NC(=O)[C@@H](NC(=O)[C@@H](NC(=O)[C@H](CCC(=O)O)NC(=O)[C@H](CCC(=O)O)NC(C)=O)C(C)C)[C@@H](C)CC)C(C)C)C(=O)NC[C@H](C)C(=O)NC[C@H](C)C(=O)N[C@@H](CCC(=O)O)C(=O)NCC(=O)N[C@@H](CCSC)C(=O)N[C@@H](CO)C(=O)N[C@H](C(=O)N[C@@H](Cc1c[nH]c2ccccc12)C(=O)N[C@@H](CO)C(=O)NC[C@H](C)C(=O)N[C@@H](CCCNC(=N)N)C(=O)N[C@@H](CCCCN)C(=O)N[C@@H](CCCCN)C(N)=O)[C@@H](C)O (Ac-EEVIKLEGREKVRAQI[β2hAla(2S)][β2hAla(2S)]EGMSTWS[β2hAla(2S)]RKK-NH2) | 2800 µg/mL (≈ 827 µM) | 80% | 2400 µg/mL (≈ 709 µM) | 99% | 0.0178 µM | 60% | 
3 | CCCC[C@H](NC(=O)[C@H](CCSC)NC(=O)CNC(=O)[C@H](CCC(=O)O)NC(=O)[C@@H](C)CNC(=O)[C@@H](C)CNC(=O)[C@@H](NC(=O)[C@H](CCCCCNC(C)=O)NC(=O)[C@H](CCCCN)NC(=O)[C@H](C)NC(=O)[C@H](CCCNC(=N)N)NC(=O)[C@@H](NC(=O)[C@H](CCCCN)NC(=O)[C@H](CCC(=O)O)NC(=O)[C@H](CCCNC(=N)N)NC(=O)[C@H](CCC(=O)O)NC(=O)CNC(=O)[C@H](CCC(=O)O)NC(=O)[C@H](CC(C)C)NC(C)=O)C(C)C)[C@@H](C)CC)C(=O)N[C@@H](CCCCN)C(=O)N[C@@H](CCCCCNC(C)=O)C(=O)N[C@@H](CO)C(=O)N[C@H](C(=O)N[C@@H](Cc1c[nH]c2ccccc12)C(=O)N[C@@H](CO)C(=O)NC[C@H](C)C(=O)N[C@@H](CCCNC(=N)N)C(=O)N[C@@H](CCCCN)C(=O)N[C@@H](CCCCN)C(=O)N[C@@H](CCCCCNC(C)=O)C(=O)N[C@@H](CCCCN)C(=O)N[C@@H](CCC(=O)O)C(=O)N[C@@H](CCC(=O)O)C(=O)N[C@@H](CCC(N)=O)C(=O)CCCCCCCCCCCCCCCCCC(=O)O)[C@@H](C)O (Ac-LEGEREKVRAK[hLys](Ac)I[β2hAla(2S)][β2hAla(2S)]EGM[Nle]K[hLys](Ac)STWS[β2hAla(2S)]RKK[hLys](Ac)KEE-X9) |  |  |  | 75% | 0.368 µM |  | > 2 µM
4 | CCCC[C@H](OC(=O)CNC(=O)[C@H](CCC(=O)O)NC(=O)[C@@H](C)CNC(=O)[C@@H](C)CNC(=O)[C@@H](NC(=O)[C@H](CCCCCNC(C)=O)NC(=O)[C@@H](C)CNC(=O)[C@@H](C)CNC(=O)[C@H](CCCCN)NC(=O)[C@H](C)NC(=O)[C@H](CCCNC(=N)N)NC(=O)[C@@H](NC(=O)[C@H](CCCCN)NC(=O)[C@H](CCC(=O)O)NC(=O)[C@H](CCCNC(=N)N)NC(=O)CNC(=O)[C@H](CCC(=O)O)NC(=O)[C@H](CC(C)C)NC(C)=O)C(C)C)[C@@H](C)CC)C(=O)N[C@@H](CO)C(=O)N[C@H](C(=O)N[C@@H](Cc1c[nH]c2ccccc12)C(=O)N[C@@H](CO)C(=O)NC[C@H](C)C(=O)N[C@@H](CCCNC(=N)N)C(=O)N[C@@H](CCCCN)C(=O)N[C@@H](CCCN)C(=O)N[C@@H](CCCCCNC(C)=O)C(N)=O)[C@@H](C)O (Ac-LEGREKVRAK[β2hAla(2S)][β2hAla(2S)][hLys](Ac)I[β2hAla(2S)][β2hAla(2S)]EG[X4]STWS[β2hAla(2S)]RK[Orn][hLys](Ac)-NH2) | 4000 µg/mL (≈ 1210 µM) | 74% | 4000 µg/mL (≈ 1210 µM) | 93% | 0.018 µM | 60% | 
5 | CC[C@H](C)[C@H](NC(=O)[C@H](CCC(N)=O)NC(=O)[C@H](C)NC(=O)[C@H](CCCNC(=N)N)NC(=O)[C@@H](NC(=O)[C@H](CC(C)C)NC(=O)[C@H](CCC(=O)O)NC(=O)[C@H](CCCNC(=N)N)NC(=O)CNC(=O)[C@H](CO)NC(=O)[C@H](CC(C)C)NC(=O)[C@H](CCCCN)NC(=O)[C@@H](NC(=O)[C@@H](NC(C)=O)C(C)C)[C@@H](C)CC)C(C)C)C(=O)NC[C@H](C)C(=O)N[C@H](C(=O)N[C@@H](CO)C(=O)NCC(=O)N[C@@H](CCSC)C(=O)N[C@@H](CO)C(=O)N[C@H](C(=O)N[C@@H](Cc1c[nH]c2ccccc12)C(=O)N[C@@H](CO)C(=O)N[C@@H](CCCCN)C(=O)N[C@@H](CCCNC(=N)N)C(=O)N[C@@H](CCCCN)C(=O)N[C@@H](CCCCN)C(N)=O)[C@@H](C)O)[C@@H](C)CC (HELM PEPTIDE1{[ac].V.I.K.L.S.G.R.E.L.V.R.A.Q.I.[C[C@@H](CN[*:1])C(=O)[*:2]].I.S.G.M.S.T.W.S.K.R.K.K.[am]}$$$$V2.0) | 5700 µg/mL (≈ 1840 µM) | 54% | 4600 µg/mL (≈ 1480 µM) | 90% | 0.202 µM | 37% | 
6 | H-VIKLSGRELVRAQIAISGMSTWSKRSL-NH2 | 1900 µg/mL | 3% | 14 µg/mL |  |  | 2% | 

Other lines, results leading:

Row | solubility at 24 h [1] | remaining at 4 h, 5 µM [2] | solubility at 24 h [3] | Emax [4] | EC50 [5] | remaining at 4 h, 5 µM [6] | EC50 [7] | Compound
7 | 6100 µg/mL (≈ 2190 µM) | 93% | 5800 µg/mL (≈ 2080 µM) | 99% | 0.014 µM | 101% |  | CC[C@H](C)[C@H](NC(=O)[C@H](CCC(N)=O)NC(=O)[C@H](C)NC(=O)[C@H](CCCNC(=N)N)NC(=O)[C@@H](NC(=O)[C@H](CCCCN)NC(=O)[C@H](CCC(=O)O)NC(=O)[C@H](CCCNC(=N)N)NC(=O)CNC(=O)[C@H](CCC(=O)O)NC(=O)[C@H](CC(C)C)NC(C)=O)C(C)C)C(=O)NC[C@H](C)C(=O)NC[C@H](C)C(=O)N[C@@H](CCC(=O)O)C(=O)NCC(=O)N[C@@H](CCSC)C(=O)N[C@@H](CO)C(=O)N[C@H](C(=O)N[C@@H](Cc1c[nH]c2ccccc12)C(=O)N[C@@H](CO)C(=O)NC[C@H](C)C(=O)N[C@@H](CCCNC(=N)N)C(=O)N[C@@H](CCCCN)C(=O)N[C@@H](CCCCN)C(N)=O)[C@@H](C)O (Ac-LEGREKVRAQI[β2hAla(2S)][β2hAla(2S)]EGMSTWS[β2hAla(2S)]RKK-NH2)
8 | 5100 µg/mL (≈ 1600 µM) | 58% | 5300 µg/mL (≈ 1660 µM) | 99% | 0.017 µM | 37% |  | CC[C@H](C)[C@H](NC(=O)[C@H](CCC(N)=O)NC(=O)[C@H](C)NC(=O)[C@H](CCCNC(=N)N)NC(=O)[C@@H](NC(=O)[C@H](CCCCN)NC(=O)[C@H](CCC(=O)O)NC(=O)[C@H](CCCNC(=N)N)NC(=O)CNC(=O)[C@H](CCC(=O)O)NC(=O)[C@H](CC(C)C)NC(=O)[C@H](CCCCN)NC(=O)[C@@H](NC(=O)[C@@H](NC(C)=O)C(C)C)[C@@H](C)CC)C(C)C)C(=O)NC[C@H](C)C(=O)NC[C@H](C)C(=O)N[C@@H](CCC(=O)O)C(=O)NCC(=O)N[C@@H](CCSC)C(=O)N[C@@H](CO)C(=O)N[C@@H](CCCCN)C(=O)N[C@@H](Cc1c[nH]c2ccccc12)C(=O)N[C@@H](CO)C(=O)N[C@@H](CCCCN)C(=O)N[C@@H](CCCNC(=N)N)C(=O)N[C@@H](CCCCN)C(=O)N[C@@H](CCCCN)C(N)=O (HELM PEPTIDE1{[ac].V.I.K.L.E.G.R.E.K.V.R.A.Q.I.[C[C@@H](CN[*:1])C(=O)[*:2]].[C[C@@H](CN[*:1])C(=O)[*:2]].E.G.M.S.K.W.S.K.R.K.K.[am]}$$$$V2.0)
